Measured values as given in patent publication US20200129450A1, “COMPOSITION COMPRISING OSMUNDACETONE OR PHARMACEUTICALLY ACCEPTABLE SALT THEREOF FOR PREVENTING OR TREATING BONE DISEASE” (KORPHARM CO., LTD., priority 2016, published 2020).
“And” between values parts separate entries of the source, which are not always exact repeats. Equal values may be shown once.

Columns and labels:
[1] = tested on: OCN in MC3T3-E1 cells; assay: Western blot, OCN production by osteoblasts; format: cell-based, mouse; conditions: 50 μM
Experimental: (§1) In order to analyze the expression of osteoblast differentiation markers during a differentiation procedure, 3×10^5 MC3T3-E1 cells were dispensed in a 100 mm culture plate together with 10 mL of complete α-MEM containing ascorbic acid (50 μg/mL) and 10 mM R-glycerophosphate per well. Here, 50 μM osmundacetone was added or not added, and the cells were incubated at 37 […] in a 5% CO2 incubator for 21 days while the medium was exchanged every 3-4 days.
(§2) The negative control cells were cultured without differentiation factors, and the osteoblasts and a culture thereof were dispensed, and then collected on day 7, 14, or 21.
(§3) The cells were lysed using RIPA buffer, and then the expression of runt-related transcription factor 2 (RUNX2) was analyzed. Also for analysis of OCN secretion, the culture was collected, and normalized by cellular DNA.
(§4) Proteins were analyzed using SDS-PAGE on 12.5% […] gels, and transferred on polyvinylidene difluoride (PVDF) membrane through electrophoresis.
The membrane was blocked using non-fat milk, and examined using anti-RUNX2 (D1H7) rabbit monoclonal antibody (#8486, Cell Signaling Technology, MA, USA) or anti-OCN (FL-95) antibody (# sc-30045, Santa Cruz Biotechnology, TX, USA). Anti-actin antibody (# M177-3, MEDICAL & BIOLOGICAL LABORATORIES CO., LTD., Nagoya, Aichi, Japan) was used as an internal reference. […]

[2] = tested on: RUNX2 in MC3T3-E1 cells; assay: Western blot, RUNX2 expression; format: cell-based, mouse; conditions: 50 μM
Experimental: as §1, §2, §3, §4
The membrane was blocked using non-fat milk, and examined using anti-RUNX2 (D1H7) rabbit monoclonal antibody (#8486, Cell Signaling Technology, MA, USA) or anti-OCN (FL-95) antibody (# sc-30045, Santa Cruz Biotechnology, TX, USA). Anti-actin antibody (# M177-3, MEDICAL & BIOLOGICAL LABORATORIES CO., LTD., Nagoya, Aichi, Japan) was used as an internal reference.
Protein bands on the blot were visualized using an enhanced chemiluminescent detection kit (# EBP-1073, PicoEPD Western Reagent, ELPIS-BIOTECH, Daejeon, Korea).

[3] = tested on: ADMSC human Adipose-derived mesenchymal stem cells; assay: MTT assay cytotoxicity; format: cell-based; conditions: 24 hours, read-out: IC50 according to MTT assay
Experimental: Human adipose-derived mesenchymal stem cells, ADMSCs (CEFO Bio, Seoul, Korea), were incubated using CB-ADMSC-GM (CEFO Bio, Seoul, Korea) in the conditions of 37° C. and 5% CO2.
The compound isolated from Osmunda japonica, prepared in section 1 of <Example 1>, was investigated for cytotoxicity using MTT assay.
MTT assay was as follows.
Cells were incubated at 1×10^3 cells/well in a 96-well plate containing DMEM with 10% fetal bovine serum (FBS) at 5% CO2 and 37° C., and then osmundacetone was added to the cell medium, followed by incubation for 24 hours. Thereafter, 100 μL of MTT (0.5 mg/ml PBS) was administered, followed by incubation for 2 hours. Thereafter, the medium was removed from each well, and 100 μL of DMSO was added. After incubation for 10 minutes, the absorbance was measured using a microplate reader (SPCTRA MAX 340PC, Molecular Devices, USA) at 570 nm. The absorbance is an indicator showing the number of living cells, and calculated by the following equation. The reproducibility thereof was validated by three experiments.
Cell proliferation (%)=OD550(sample)/OD550(control)

[4] = tested on: ALP activity in MC3T3-E1; assay: Measurement of ALP activity in MC3T3-E1; format: cell-based, mouse; conditions: MC3T3-E1, day 14, mean±s.d.
Experimental: ALP activity was assessed using Quantichrom ALP Assay Kit (Bioassay Systems, Hayward, Calif., USA) according to manufacturer's instructions.
Briefly, 3×10^3 MC3T3-E1 cells were dispensed in a 96-well plate together with […] of complete α-MEM containing ascorbic acid (50 μg/mL) and 10 mM β-glycerophosphate per well. Here, osmundacetone (10 μM and 50 μM) was added or not added, and the medium was exchanged every 3-4 days.
On day 14 of the incubation, the colorimetric change due to ALP activity in the cell fraction was measured using a spectrophotometer plate reader (Molecular Devices, Sunnyvale, Calif., USA) at 405 nm (Kim et al., 2016). The % activation of ALP activity was shown by comparing ALP activity of cells treated with an experimental compound and ALP activity of the non-treated control cells.

CC(=O)/C=C/c1ccc(O)c(O)c1 [Osmundacetone, (3E)-4-(3,4-dihydroxyphenyl)-3-buten-2-one]
OCN production by osteoblasts, increase compared with non-treated positive control cells ([1]; day 14): 2.9 times | OCN production by osteoblasts, increase compared with non-treated positive control cells ([1]; day 21): 1.2 times | RUNX2 expression level, increase compared with non-treated positive control group ([2]; day 7): 1.1 times | RUNX2 expression level, increase compared with non-treated positive control group ([2]; day 14): 1.1 times | RUNX2 expression level, increase compared with non-treated positive control group ([2]; day 21): 2.1 times | IC50 [3]: 2760 µM | % Activation of ALP activity ([4]; 10 μM): 115 ± 9.4% | % Activation of ALP activity ([4]; 50 μM): 279 ± 61 % | % Activation of ALP activity ([4]; 50 μM, listed as osmundacetone): 279±61% and 280%
